Laboratory results taken from the supplement of paper PMC10307832.

Assays:
Assay in all cases: relative viability (nuclei count vs DMSO), 5 days (fraction); higher = more cells survive
[1] = compound: O=C(O)C(Cc1ccccc1[N+](=O)[O-])=NNc1nc(-c2ccc(Cl)c(Cl)c2)cs1 (mixture of isomers) [4EGI-1] + CS(=O)(=O)N1CCN(Cc2cc3nc(-c4cccc5[nH]ncc45)nc(N4CCOCC4)c3s2)CC1 [Pictilisib] (partner 1 µM)
Procedure, shortened: (§1)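 Lung cancer cell lines were seeded in 1536-well plates and dosed by pin tool the next day, with either a single drug or a fixed anchor-drug dose combined with five library-drug doses (not always all listed) spaced in √10 steps. Five days later, one step fixed the cells and stained their nuclei (final 0.05% Triton X-100, 1% formaldehyde, 1 ug/ml Hoechst), and nuclei were counted on 4× images. Relative viability is the nuclei count in treated wells divided by the count in vehicle wells, and each value is the median of duplicate plates.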

[2] = compound: CN1CCN(CC1)C2=CC(=C(C=C2)NC3=NC=C4C(=N3)N(C5=CC=CC=C5C(=O)N4C)C)OC [XMD8-85] + Cc1nc(NC(=O)N2CCC[C@H]2C(N)=O)sc1-c1ccnc(C(C)(C)C(F)(F)F)c1 [Alpelisib] (partner 2 µM)
Procedure, shortened: as §1

[3] = compound: O=C(O)C(Cc1ccccc1[N+](=O)[O-])=NNc1nc(-c2ccc(Cl)c(Cl)c2)cs1 (mixture of isomers) [4EGI-1] + Nc1nc2[nH]cc(CCc3ccc(C(=O)N[C@@H](CCC(=O)O)C(=O)O)cc3)c2c(=O)[nH]1 [Pemetrexed] (partner 0.2 µM)
Procedure, shortened: as §1

[4] = compound: CN1CCN(CC1)C2=CC(=C(C=C2)NC3=NC=C4C(=N3)N(C5=CC=CC=C5C(=O)N4C)C)OC [XMD8-85] + CC(=O)c1c(C)c2cnc(Nc3ccc(N4CCNCC4)cn3)nc2n(C2CCCC2)c1=O [Palbociclib] (partner 0.5 µM)
Procedure, shortened: as §1

Row | Cell Line | relative viability ([1]; first compound 0.5 µM) | relative viability ([1]; first compound 1.581 µM) | relative viability ([1]; first compound 5 µM) | relative viability ([1]; first compound 15.81 µM) | relative viability ([1]; first compound 50 µM) | relative viability ([2]; first compound 0.08 µM) | relative viability ([2]; first compound 0.253 µM) | relative viability ([2]; first compound 0.8 µM) | relative viability ([2]; first compound 2.53 µM) | relative viability ([2]; first compound 8 µM) | relative viability ([3]; first compound 0.5 µM) | relative viability ([3]; first compound 1.581 µM) | relative viability ([3]; first compound 5 µM) | relative viability ([3]; first compound 15.81 µM) | relative viability ([3]; first compound 50 µM) | relative viability ([4]; first compound 0.08 µM) | relative viability ([4]; first compound 0.253 µM) | relative viability ([4]; first compound 0.8 µM) | relative viability ([4]; first compound 2.53 µM) | relative viability ([4]; first compound 8 µM)
1 | NCI-H3122 | 0.599 | 0.531 | 0.632 | 0.635 | 0.412 | 0.814 | 0.71 | 0.954 | 0.93 | 0.766 | 0.196 | 0.192 | 0.189 | 0.224 | 0.175 | 0.188 | 0.192 | 0.218 | 0.186 | 0.215
2 | NCI-H596 | 0.439 | 0.394 | 0.394 | 0.4 | 0.352 | – | 0.558 | 0.511 | 0.411 | 0.403 | 0.535 | 0.458 | 0.51 | 0.455 | 0.43 | – | – | – | – | –
3 | NCI-H2087 | 1.02 | 0.813 | 0.888 | 0.626 | 0.386 | 1.18 | 1.05 | 1.21 | 1.35 | 0.808 | 0.651 | 0.648 | 0.637 | 0.637 | 0.481 | 0.205 | 0.168 | 0.222 | 0.217 | 0.172
4 | NCI-H2342 | – | – | – | – | – | – | – | – | – | – | 0.884 | 0.723 | 0.813 | 0.978 | 0.702 | 0.445 | 0.561 | 0.503 | 0.544 | 0.533
5 | NCI-H1563 | 0.637 | 0.662 | 0.622 | 0.662 | 0.521 | 1.04 | 0.967 | 0.882 | 0.814 | 0.709 | 0.905 | 0.221 | 0.968 | 0.747 | 0.81 | – | – | – | – | –
6 | NCI-H1395 | 0.638 | – | 0.735 | 0.567 | 0.346 | 0.927 | 0.907 | 0.933 | 0.965 | 1.08 | 0.878 | – | 1.12 | 0.917 | 0.421 | 0.503 | 0.61 | 0.621 | 0.54 | 0.495
7 | NCI-H460 | 0.381 | – | 0.366 | 0.331 | 0.261 | 0.447 | 0.442 | 0.688 | 0.401 | 0.147 | 0.0637 | 0.0738 | 0.0637 | 0.0604 | 0.0616 | 0.129 | 0.221 | 0.139 | 0.223 | 0.0809
8 | NCI-H2228 | 0.444 | 0.403 | 0.464 | 0.335 | 0.298 | – | 0.724 | 0.78 | 0.891 | 0.488 | 0.377 | 0.472 | 0.367 | 0.338 | 0.164 | 0.651 | 0.572 | 0.828 | 0.844 | 0.35
9 | HOP-62 | 0.576 | – | 0.709 | 0.546 | 0.256 | 0.85 | 0.967 | 1.04 | 0.908 | – | 0.342 | 0.389 | 0.362 | 0.311 | 0.318 | 0.512 | 0.463 | – | 0.378 | 0.246
